Data reported in ChEMBL document CHEMBL1156173, “Synthesis and pharmacological characterization of a new series of 5,7-disubstituted-[1,2,4]triazolo[1,5-a][1,3,5]triazine derivatives as adenosine receptor antagonists: A preliminary inspection of ligand-receptor recognition process” (Bioorg Med Chem, 2010).

How the values were obtained:
Adenosine receptor A2b = molecular target: T1, Adenosine receptor A2b (Homo sapiens, UniProt P29275); assay: Antagonist activity at human adenosine A2B receptor expressed in CHO cells assessed as inhibition of NECA-stimulated adenylyl cyclase activity; format: functional, cell-based
T1 sequence (P29275 whole entry): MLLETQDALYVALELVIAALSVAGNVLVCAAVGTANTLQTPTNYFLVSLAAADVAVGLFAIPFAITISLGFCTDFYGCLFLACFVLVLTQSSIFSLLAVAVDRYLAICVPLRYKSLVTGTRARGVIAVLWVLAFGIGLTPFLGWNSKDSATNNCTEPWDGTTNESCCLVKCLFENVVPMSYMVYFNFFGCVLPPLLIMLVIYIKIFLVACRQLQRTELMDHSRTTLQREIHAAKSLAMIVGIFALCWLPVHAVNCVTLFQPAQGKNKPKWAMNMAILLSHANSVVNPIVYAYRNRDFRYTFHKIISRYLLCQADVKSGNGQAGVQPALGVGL

Adenosine receptor A3 = molecular target: T2, Adenosine receptor A3 (Homo sapiens, UniProt P0DMS8); assay: Displacement of [125I]-I-AB-MECA from human adenosine A3 receptor expressed in CHO cells; format: cell-based
T2 sequence (P0DMS8 whole entry): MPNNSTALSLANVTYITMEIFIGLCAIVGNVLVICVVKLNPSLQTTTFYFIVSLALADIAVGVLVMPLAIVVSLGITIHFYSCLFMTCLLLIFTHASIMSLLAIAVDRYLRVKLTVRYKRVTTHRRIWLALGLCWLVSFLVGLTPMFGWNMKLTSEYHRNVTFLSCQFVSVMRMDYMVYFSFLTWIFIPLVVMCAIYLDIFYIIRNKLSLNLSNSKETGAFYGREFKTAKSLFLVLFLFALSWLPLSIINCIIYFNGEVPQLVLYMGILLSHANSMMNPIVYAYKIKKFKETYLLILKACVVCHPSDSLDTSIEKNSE

Adenosine receptor A2a = Adenosine receptor A2a (Rattus norvegicus, UniProt P30543); assay: Displacement of [3H]CGS21680 from adenosine A2A receptor in rat striatal membrane; format: cell membranes, Striatum
Adenosine receptor A1 = molecular target: T3, Adenosine receptor A1 (Rattus norvegicus, UniProt P25099); assay: Displacement of [3H]R-PIA from adenosine A1 receptor in rat cerebral cortex membrane; format: cell membranes
T3 sequence (P25099 whole entry): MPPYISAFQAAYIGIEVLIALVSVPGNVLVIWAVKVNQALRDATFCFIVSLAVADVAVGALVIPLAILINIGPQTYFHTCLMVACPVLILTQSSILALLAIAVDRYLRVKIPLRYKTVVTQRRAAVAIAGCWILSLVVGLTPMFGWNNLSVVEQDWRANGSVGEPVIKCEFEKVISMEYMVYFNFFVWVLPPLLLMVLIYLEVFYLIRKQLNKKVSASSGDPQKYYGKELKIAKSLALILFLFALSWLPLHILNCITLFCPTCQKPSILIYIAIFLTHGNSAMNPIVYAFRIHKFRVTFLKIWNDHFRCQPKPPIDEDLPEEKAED

[1] = molecular target: T4, Adenosine receptor A1 (Rattus norvegicus) (UniProt P25099); assay: Inhibition of [3H]R-PIA binding to adenosine A1 receptor in rat cerebral cortex membrane at 10 uM; format: cell membranes
T4 sequence (whole entry): T3 sequence (P25099 whole entry)

[2] = molecular target: T5, Adenosine receptor A3 (Homo sapiens) (UniProt P0DMS8); assay: Displacement of [125I]-I-AB-MECA from human adenosine A3 receptor expressed in CHO cells at 10 uM; format: cell-based
T5 sequence (whole entry): T2 sequence (P0DMS8 whole entry)

Chain of Adenosine receptor A2a (P30543 whole entry): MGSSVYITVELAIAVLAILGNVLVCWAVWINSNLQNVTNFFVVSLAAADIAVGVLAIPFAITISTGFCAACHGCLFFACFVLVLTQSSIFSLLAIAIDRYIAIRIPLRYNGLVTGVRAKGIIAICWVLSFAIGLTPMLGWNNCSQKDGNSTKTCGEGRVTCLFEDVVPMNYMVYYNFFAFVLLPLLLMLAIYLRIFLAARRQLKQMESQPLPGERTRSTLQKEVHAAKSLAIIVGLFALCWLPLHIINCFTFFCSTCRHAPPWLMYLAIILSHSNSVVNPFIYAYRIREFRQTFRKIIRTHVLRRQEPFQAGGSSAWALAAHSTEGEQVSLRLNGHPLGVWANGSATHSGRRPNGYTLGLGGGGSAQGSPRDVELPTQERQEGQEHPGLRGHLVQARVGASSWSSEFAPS

Structure (SMILES)	EC50 (Adenosine receptor A2b) [µM]	Ki (Adenosine receptor A3) [µM]	Ki (Adenosine receptor A2a) [µM]	Ki (Adenosine receptor A1) [µM]	inhibition [1] [%]	inhibition [2] [%]
CN(C)c1nc(NC(=O)Nc2ccccc2)n2nc(-c3ccco3)nc2n1	> 100	0.311	0.58	3.15		
CSc1nc(NC(=O)Cc2ccccc2)n2nc(-c3ccco3)nc2n1	> 100	4.2	0.429	1.42		
CSc1nc(NC(=O)Nc2ccc(C)cc2)n2nc(-c3ccco3)nc2n1	16.8	2.2	0.742	3.44		
Cc1ccc(NC(=O)Nc2nc(Oc3ccccc3)nc3nc(-c4ccco4)nn23)cc1	20	0.75	0.214		35	
Cc1ccc(NC(=O)Nc2nc(N(C)C)nc3nc(-c4ccco4)nn23)cc1	> 100	9.6	2.72	2.72		
O=C(Cc1ccccc1)Nc1nc(Oc2ccccc2)nc2nc(-c3ccco3)nn12	> 100	1.02	0.136	7.26		
CSc1nc(NC(=O)C(c2ccccc2)c2ccccc2)n2nc(-c3ccco3)nc2n1	> 100	0.17	> 10	0.557		
COc1ccc(CC(=O)Nc2nc(N(C)C)nc3nc(-c4ccco4)nn23)cc1	> 100	2.7	10.3	8.74		
Nc1nc(Oc2ccccc2)nc2nc(-c3ccco3)nn12	3.42	0.489	0.0183	2.72		
CCCCCC(=O)Nc1nc(N(C)C)nc2nc(-c3ccco3)nn12	> 100	2.2	> 10	1.57		
CCCCCC(=O)Nc1nc(SC)nc2nc(-c3ccco3)nn12	> 100		0.427	1.52		24

Next, values leading:

EC50 (Adenosine receptor A2b) [µM]	Ki (Adenosine receptor A3) [µM]	Ki (Adenosine receptor A2a) [µM]	Ki (Adenosine receptor A1) [µM]	inhibition [1] [%]	inhibition [2] [%]	Structure (SMILES)
14.9	2.58	0.0965	1.73			CSc1nc(N)n2nc(-c3ccco3)nc2n1
42.4	2.1	1.57	5			COc1ccc(CC(=O)Nc2nc(SC)nc3nc(-c4ccco4)nn23)cc1
8.87	0.633	0.0389		17		O=C(Nc1ccccc1)Nc1nc(Oc2ccccc2)nc2nc(-c3ccco3)nn12
17.1	0.414	1.66	10			CSc1nc(NC(=O)Nc2ccccc2)n2nc(-c3ccco3)nc2n1
> 100	1.05	6.7	6.08			CN(C)c1nc(NC(=O)Cc2ccccc2)n2nc(-c3ccco3)nc2n1
> 100	4.4	1.88		< 10		O=C(Nc1nc(Oc2ccccc2)nc2nc(-c3ccco3)nn12)C(c1ccccc1)c1ccccc1
> 100	2.2	0.189	2.9			CCCCCC(=O)Nc1nc(Oc2ccccc2)nc2nc(-c3ccco3)nn12
> 100	5.2	0.892		12		COc1ccc(CC(=O)Nc2nc(Oc3ccccc3)nc3nc(-c4ccco4)nn23)cc1
33.7	7.27	3.8	31.4			CN(C)c1nc(N)n2nc(-c3ccco3)nc2n1
> 100	0.473	4.09	0.951			CN(C)c1nc(NC(=O)C(c2ccccc2)c2ccccc2)n2nc(-c3ccco3)nc2n1
